# Experimental data: the NIST ThermoML archive (doi:10.1021/je200595b)
# ± gives the expanded uncertainty stated by the source.
# Assay: excess molar enthalpy (molar enthalpy of mixing); xn = mol fraction of the nth substance listed
# Conditions: 298.15 K, 100 kPa, Liquid, Flow calorimetry
smiles,measurement,setting,value
CC(=O)OC(C)=O [ethanoic anhydride] + CC(=O)O,excess molar enthalpy,x1 = 0.05,0.0108 ± 0.000717 kcal/mol
same,excess molar enthalpy,x1 = 0.1,0.0213 ± 0.0012 kcal/mol
same,excess molar enthalpy,x1 = 0.15,0.032 ± 0.00167 kcal/mol
same,excess molar enthalpy,x1 = 0.2,0.0423 ± 0.00215 kcal/mol
same,excess molar enthalpy,x1 = 0.25,0.0519 ± 0.00263 kcal/mol
same,excess molar enthalpy,x1 = 0.3,0.0607 ± 0.00311 kcal/mol
same,excess molar enthalpy,x1 = 0.35,0.0688 ± 0.00359 kcal/mol
same,excess molar enthalpy,x1 = 0.4,0.0758 ± 0.00382 kcal/mol
same,excess molar enthalpy,x1 = 0.45,0.0813 ± 0.00406 kcal/mol
same,excess molar enthalpy,x1 = 0.5,0.0851 ± 0.0043 kcal/mol
same,excess molar enthalpy,x1 = 0.55,0.0875 ± 0.00454 kcal/mol
same,excess molar enthalpy,x1 = 0.6,0.088 ± 0.00454 kcal/mol
same,excess molar enthalpy,x1 = 0.65,0.0863 ± 0.0043 kcal/mol
same,excess molar enthalpy,x1 = 0.7,0.0822 ± 0.00406 kcal/mol
same,excess molar enthalpy,x1 = 0.75,0.0758 ± 0.00382 kcal/mol
same,excess molar enthalpy,x1 = 0.8,0.0669 ± 0.00335 kcal/mol
same,excess molar enthalpy,x1 = 0.85,0.055 ± 0.00287 kcal/mol
same,excess molar enthalpy,x1 = 0.9,0.0402 ± 0.00215 kcal/mol
same,excess molar enthalpy,x1 = 0.95,0.022 ± 0.0012 kcal/mol
CC(=O)OC(C)=O [ethanoic anhydride] + CCO,excess molar enthalpy,x2 = 0.05,0.0822 ± 0.00406 kcal/mol
same,excess molar enthalpy,x2 = 0.1,0.154 ± 0.00789 kcal/mol
same,excess molar enthalpy,x2 = 0.15,0.214 ± 0.0108 kcal/mol
same,excess molar enthalpy,x2 = 0.2,0.266 ± 0.0134 kcal/mol
same,excess molar enthalpy,x2 = 0.25,0.306 ± 0.0155 kcal/mol
same,excess molar enthalpy,x2 = 0.3,0.339 ± 0.0172 kcal/mol
same,excess molar enthalpy,x2 = 0.35,0.364 ± 0.0184 kcal/mol
same,excess molar enthalpy,x2 = 0.4,0.382 ± 0.0194 kcal/mol
same,excess molar enthalpy,x2 = 0.45,0.396 ± 0.0201 kcal/mol
same,excess molar enthalpy,x2 = 0.5,0.405 ± 0.0206 kcal/mol
same,excess molar enthalpy,x2 = 0.6,0.383 ± 0.0194 kcal/mol
same,excess molar enthalpy,x2 = 0.65,0.363 ± 0.0184 kcal/mol
same,excess molar enthalpy,x2 = 0.7,0.337 ± 0.017 kcal/mol
same,excess molar enthalpy,x2 = 0.75,0.306 ± 0.0155 kcal/mol
same,excess molar enthalpy,x2 = 0.8,0.268 ± 0.0136 kcal/mol
same,excess molar enthalpy,x2 = 0.85,0.221 ± 0.0112 kcal/mol
same,excess molar enthalpy,x2 = 0.9,0.164 ± 0.00837 kcal/mol
same,excess molar enthalpy,x2 = 0.95,0.0939 ± 0.00478 kcal/mol
CCOC(C)=O [ethyl acetate] + CCO,excess molar enthalpy,x2 = 0.05,0.0712 ± 0.00359 kcal/mol
same,excess molar enthalpy,x2 = 0.1,0.135 ± 0.00693 kcal/mol
same,excess molar enthalpy,x2 = 0.15,0.185 ± 0.00932 kcal/mol
same,excess molar enthalpy,x2 = 0.2,0.222 ± 0.0112 kcal/mol
same,excess molar enthalpy,x2 = 0.25,0.25 ± 0.0127 kcal/mol
same,excess molar enthalpy,x2 = 0.3,0.27 ± 0.0136 kcal/mol
same,excess molar enthalpy,x2 = 0.35,0.283 ± 0.0143 kcal/mol
same,excess molar enthalpy,x2 = 0.4,0.291 ± 0.0148 kcal/mol
same,excess molar enthalpy,x2 = 0.45,0.293 ± 0.0148 kcal/mol
same,excess molar enthalpy,x2 = 0.5,0.289 ± 0.0146 kcal/mol
same,excess molar enthalpy,x2 = 0.55,0.284 ± 0.0143 kcal/mol
same,excess molar enthalpy,x2 = 0.6,0.276 ± 0.0139 kcal/mol
same,excess molar enthalpy,x2 = 0.65,0.262 ± 0.0131 kcal/mol
same,excess molar enthalpy,x2 = 0.7,0.234 ± 0.0117 kcal/mol
same,excess molar enthalpy,x2 = 0.75,0.205 ± 0.0103 kcal/mol
same,excess molar enthalpy,x2 = 0.8,0.174 ± 0.00884 kcal/mol
same,excess molar enthalpy,x2 = 0.85,0.138 ± 0.00693 kcal/mol
same,excess molar enthalpy,x2 = 0.9,0.1 ± 0.00502 kcal/mol
same,excess molar enthalpy,x2 = 0.95,0.0554 ± 0.00287 kcal/mol
